From ChEMBL document CHEMBL3272053, “(exo, exo)-2-Aryltropane-3-carboxylic esters, hypoglycemic agents with accompanying analgesic activity” (J Med Chem, 1978)
Active and inactive are the calls of the source. No cut-off for these calls is given here.

Tests used:
Rattus norvegicus [1] = assay: Narcotic analgesic activity in fed Sprague-Dawley rat at 120 mg/kg, sc measured at 30 mins by D'Amour-Smith tail-flick test; assay type: functional; conditions: route subcutaneous
Mus musculus [2] = assay: Analgesic activity in sc dosed Swiss-Webster mouse assessed as reduction of acetylcholine-induced writhing; assay type: functional; conditions: Mus musculus, Swiss-Webster, sc; read-out: ED50
Rattus norvegicus [3] = assay: Toxicity in Sprague-Dawley rat assessed as tremor at 120 mg/kg, sc; assay type: organism-based; parameters: dose 120 mg/kg, route subcutaneous; conditions: in vivo
Mus musculus [4] = assay: Toxicity in Swiss-Webster mouse assessed as hyperactivity at 75 mg/kg, sc; assay type: organism-based; parameters: dose 75 mg/kg, route subcutaneous; conditions: in vivo
Rattus norvegicus [5] = assay: Hypoglycemic activity in Sprague-Dawley rat assessed as reduction of blood glucose level at 88 mg/kg, po by glucagon-impaired glucose disposal test relative to control; assay type: functional; parameters: scale not given: the % may be the effect or the level left
Rattus norvegicus [6] = assay: Toxicity in Sprague-Dawley rat assessed as tremor at 30 mg/kg, sc; assay type: organism-based; parameters: dose 30 mg/kg, route subcutaneous; conditions: in vivo
Rattus norvegicus [7] = assay: Toxicity in Sprague-Dawley rat assessed as convulsion at 120 mg/kg, sc; assay type: organism-based; parameters: dose 120 mg/kg, route subcutaneous; conditions: in vivo
Rattus norvegicus [8] = assay: Narcotic antagonist activity in fed Sprague-Dawley rat assessed as decrease in phenazocine-induced analgesic activity at 80 mg/kg, sc; assay type: functional
Rattus norvegicus [9] = assay: Narcotic antagonist activity in fed Sprague-Dawley rat assessed as decrease in phenazocine-induced analgesic activity at 1 mg/kg, sc; assay type: functional, organism-based; parameters: dose 1 mg/kg
Rattus norvegicus [10] = assay: Hypoglycemic activity in Sprague-Dawley rat assessed as reduction of blood glucose level at 87 mg/kg, po by glucagon-impaired glucose disposal test relative to control; assay type: functional; parameters: scale not given: the % may be the effect or the level left
Rattus norvegicus [11] = assay: Hypoglycemic activity in glucose loaded Sprague-Dawley rat assessed as reduction of blood glucose level at 94 mg/kg, po relative to control; assay type: functional; parameters: scale not given: the % may be the effect or the level left
Rattus norvegicus [12] = assay: Narcotic analgesic activity in fasted Sprague-Dawley rat at 240 mg/kg, po measured at 60 mins by D'Amour-Smith tail-flick test relative to control; assay type: functional
Rattus norvegicus [13] = assay: Narcotic analgesic activity in fasted Sprague-Dawley rat at 240 mg/kg, po measured at 15 mins by D'Amour-Smith tail-flick test relative to control; assay type: functional
Mus musculus [14] = assay: Analgesic activity in Swiss-Webster mouse assessed as reduction of acetylcholine-induced writhing at 50 mg/kg, po relative to control; assay type: functional; parameters: scale not given: the % may be the effect or the level left
Rattus norvegicus [15] = assay: Toxicity in Sprague-Dawley rat assessed as tremor at 240 mg/kg, po; assay type: organism-based; parameters: dose 240 mg/kg, route oral; conditions: in vivo
Rattus norvegicus [16] = assay: Toxicity in Sprague-Dawley rat assessed as rigidity at 240 mg/kg, po; assay type: organism-based; parameters: dose 240 mg/kg, route oral; conditions: in vivo
Rattus norvegicus [17] = assay: Hypoglycemic activity in Sprague-Dawley rat assessed as reduction of blood glucose level at 64 mg/kg, po by glucagon-impaired glucose disposal test relative to control; assay type: functional; parameters: scale not given: the % may be the effect or the level left
Rattus norvegicus [18] = assay: Narcotic analgesic activity in fed Sprague-Dawley rat at 60 mg/kg, sc measured at 30 mins by D'Amour-Smith tail-flick test; assay type: functional; conditions: route subcutaneous
Rattus norvegicus [19] = assay: Toxicity in Sprague-Dawley rat assessed as hyperactivity at 2.5 mg/kg, sc; assay type: organism-based; parameters: dose 2.5 mg/kg, route subcutaneous; conditions: in vivo
Rattus norvegicus [20] = assay: Toxicity in Sprague-Dawley rat assessed as tremor at 60 mg/kg, sc; assay type: organism-based; parameters: dose 60 mg/kg, route subcutaneous; conditions: in vivo
Rattus norvegicus [21] = assay: Toxicity in Sprague-Dawley rat assessed as convulsion at 60 mg/kg, sc; assay type: organism-based; parameters: dose 60 mg/kg, route subcutaneous; conditions: in vivo
Rattus norvegicus [22] = assay: Narcotic antagonist activity in sc dosed fed Sprague-Dawley rat assessed as concentration required to decrease phenazocine-induced analgesic activity by 50%; assay type: functional
Rattus norvegicus [23] = assay: Hypoglycemic activity in Sprague-Dawley rat assessed as reduction of blood glucose level at 100 mg/kg, po by glucagon-impaired glucose disposal test relative to control; assay type: functional; parameters: scale not given: the % may be the effect or the level left
Mus musculus [24] = assay: Analgesic activity in po dosed Swiss-Webster mouse assessed as reduction of acetylcholine-induced writhing; assay type: functional
[25] = Drug metabolism in glucose loaded Sprague-Dawley rat urine assessed as formation of (7)- (exo,exo)-methyl 2-(thiophen-2-yl)-8-azabicyclo[3.2.1]octane-3-carboxylate hydrochloride at 20 mg, po administered 3 to 6 hrs measured for 24 hrs by TLC/mass spectrographic analysis; assay type: ADME, organism-based; conditions: in vivo
Rattus norvegicus [26] = assay: Analgesic activity in po dosed rat assessed as reduction of intraarterial bradykinin-induced pain response; assay type: functional
Rattus norvegicus [27] = assay: Toxicity in Sprague-Dawley rat at 240 mg/kg, po; assay type: organism-based; parameters: dose 240 mg/kg, route oral; conditions: in vivo
Rattus norvegicus [28] = assay: Hypoglycemic activity in Sprague-Dawley rat assessed as reduction of blood glucose level at 100 mg/kg, po by glucagon-impaired glucose disposal test in presence of opioid antagonist nalorphine; assay type: functional, organism-based; parameters: dose 100 mg/kg
Rattus norvegicus [29] = assay: Narcotic analgesic activity in fasted Sprague-Dawley rat at 240 mg/kg, po measured within 15 mins in presence of (exo,endo)-methyl 8-methyl-2-phenyl-8-azabicyclo[3.2.1]octane-3-carboxylate; assay type: functional, organism-based; parameters: dose 240 mg/kg
Rattus norvegicus [30] = assay: Hypoglycemic activity in Sprague-Dawley rat assessed as reduction of blood glucose level at 100 mg/kg, po by glucagon-impaired glucose disposal test in presence of (exo,endo)-methyl 8-methyl-2-phenyl-8-azabicyclo[3.2.1]octane-3-carboxylate; assay type: functional, organism-based; parameters: dose 100 mg/kg
Rattus norvegicus [31] = assay: Hypoglycemic activity in Sprague-Dawley rat assessed as reduction of blood glucose level at 100 mg/kg, po by glucagon-impaired glucose disposal test in presence of microsomal enzyme inhibitor SKF 525-A; assay type: functional, organism-based; parameters: dose 100 mg/kg
Rattus norvegicus [32] = assay: Hypoglycemic activity in glucose/glycogen loaded Sprague-Dawley rat assessed as reduction of blood glucose level at 100 mg/kg, po measured at 0.5 hrs relative to control; assay type: functional; parameters: scale not given: the % may be the effect or the level left
Rattus norvegicus [33] = assay: Hypoglycemic activity in glucose/glycogen loaded Sprague-Dawley rat assessed as reduction of blood glucose level at 100 mg/kg, po measured at 1 hr relative to control; assay type: functional; parameters: scale not given: the % may be the effect or the level left
Rattus norvegicus [34] = assay: Hypoglycemic activity in glucose/glycogen loaded Sprague-Dawley rat assessed as reduction of blood glucose level at 100 mg/kg, po measured at 1.5 hrs relative to control; assay type: functional; parameters: scale not given: the % may be the effect or the level left
Rattus norvegicus [35] = assay: Hypoglycemic activity in glucose/glycogen loaded Sprague-Dawley rat assessed as reduction of glucose level per 100 mL of blood at 100 mg/kg, po measured at 2 hrs (reference value: 110 +/- 10 mg/100 mL); assay type: functional
Rattus norvegicus [36] = assay: Hypoglycemic activity in glucose loaded Sprague-Dawley rat assessed as reduction of blood glucose level at 100 mg/kg, po measured at 0.5 hrs relative to control; assay type: functional; parameters: scale not given: the % may be the effect or the level left
Rattus norvegicus [37] = assay: Hypoglycemic activity in glucose loaded Sprague-Dawley rat assessed as reduction of blood glucose level at 100 mg/kg, po measured at 1 hr relative to control; assay type: functional; parameters: scale not given: the % may be the effect or the level left
Rattus norvegicus [38] = assay: Hypoglycemic activity in glucose loaded Sprague-Dawley rat assessed as reduction of blood glucose level at 100 mg/kg, po measured at 1.5 hrs relative to control; assay type: functional; parameters: scale not given: the % may be the effect or the level left
Rattus norvegicus [39] = assay: Hypoglycemic activity in glucose loaded Sprague-Dawley rat assessed as reduction of glucose level per 100 mL of blood at 100 mg/kg, po measured at 2 hrs (reference value: 104 +/- 4 mg/100 mL); assay type: functional
Rattus norvegicus [40] = assay: Hypoglycemic activity in fasted Sprague-Dawley rat assessed as reduction of blood glucose level at 100 mg/kg, po measured at 0.5 hrs relative to control; assay type: functional; parameters: scale not given: the % may be the effect or the level left
Rattus norvegicus [41] = assay: Hypoglycemic activity in fasted Sprague-Dawley rat assessed as reduction of blood glucose level at 100 mg/kg, po measured at 1 hr relative to control; assay type: functional; parameters: scale not given: the % may be the effect or the level left
Rattus norvegicus [42] = assay: Hypoglycemic activity in fasted Sprague-Dawley rat assessed as reduction of blood glucose level at 100 mg/kg, po measured at 1.5 hrs relative to control; assay type: functional; parameters: scale not given: the % may be the effect or the level left
Rattus norvegicus [43] = assay: Hypoglycemic activity in fasted Sprague-Dawley rat assessed as reduction of blood glucose level at 100 mg/kg, po measured at 2 hrs relative to control; assay type: functional; parameters: scale not given: the % may be the effect or the level left
Rattus norvegicus [44] = assay: Hypoglycemic activity in Sprague-Dawley rat assessed as reduction of blood glucose level at 78 mg/kg, po by glucagon-impaired glucose disposal test relative to control; assay type: functional; parameters: scale not given: the % may be the effect or the level left
Mus musculus [45] = assay: Analgesic activity in Swiss-Webster mouse assessed as reduction of acetylcholine-induced writhing at 75 mg/kg, sc relative to control; assay type: functional; parameters: scale not given: the % may be the effect or the level left; conditions: route subcutaneous

COC(=O)[C@H]1C[C@H]2CC[C@H]([C@H]1Cc1ccccc1)N2C.Cl
Activity (Rattus norvegicus [1]): <20%
ED50 (Mus musculus [2]): 5.8 mg/kg
Activity (Rattus norvegicus [3]): Toxic
Activity (Mus musculus [4]): Toxic
Activity (Rattus norvegicus [5]): 21%

CC(=O)[C@H]1C[C@H]2CC[C@H]([C@H]1c1ccccc1)N2C.Cl
Activity (Rattus norvegicus [1]): <20%
ED50 (Mus musculus [2]): 7 mg/kg
Activity (Rattus norvegicus [6]): Toxic
Activity (Rattus norvegicus [7]): Toxic
Activity (Rattus norvegicus [8]): Active
Activity (Rattus norvegicus [9]): Active
Activity (Rattus norvegicus [10]): 32%

COC(=O)[C@H]1C[C@H]2CC[C@@H]3[C@H]1c1sccc1C[N+]23[O-]
Activity (Rattus norvegicus [11]): <20%
Activity (Rattus norvegicus [12]): 14%
Activity (Rattus norvegicus [13]): 41%
Activity (Mus musculus [14]): 67%
Activity (Rattus norvegicus [15]): Toxic
Activity (Rattus norvegicus [16]): Toxic

COC(=O)[C@H]1C[C@H]2CC[C@H]([C@H]1c1ccccc1)N2CC1CC1.Cc1ccc(S(=O)(=O)O)cc1
Activity (Rattus norvegicus [17]): 20%
Activity (Rattus norvegicus [18]): <20%
ED50 (Mus musculus [2]): 16 mg/kg
Activity (Rattus norvegicus [19]): Toxic
Activity (Rattus norvegicus [20]): Toxic
Activity (Rattus norvegicus [21]): Toxic
Activity (Rattus norvegicus [22]): 4.7 mg/kg

CCCCCN1[C@@H]2CC[C@@H]1[C@@H](c1cccs1)[C@@H](C(=O)OC)C2.CS(=O)(=O)O
Activity (Rattus norvegicus [23]): 60%
Activity (Rattus norvegicus [13]): 71%
ED50 (Mus musculus [24]): 57 mg/kg
Drug metabolism [25]: metabolite_detected
ED50 (Rattus norvegicus [26]): 17 mg/kg
Activity (Rattus norvegicus [27]): Non-toxic
Activity (Rattus norvegicus [28]): Active
Activity (Rattus norvegicus [29]): inactive
Activity (Rattus norvegicus [30]): Active
Activity (Rattus norvegicus [31]): inactive
Activity (Rattus norvegicus [32]): 60%
Activity (Rattus norvegicus [33]): 60%
Activity (Rattus norvegicus [34]): 52%
Activity (Rattus norvegicus [35]): 77 mg/kg
Activity (Rattus norvegicus [36]): 67%
Activity (Rattus norvegicus [37]): 61%
Activity (Rattus norvegicus [38]): 33%
Activity (Rattus norvegicus [39]): 76 mg/kg
Activity (Rattus norvegicus [40]): 42%
Activity (Rattus norvegicus [41]): 41%
Activity (Rattus norvegicus [42]): 39%
Activity (Rattus norvegicus [43]): 33%

CN1[C@@H]2CC[C@@H]1[C@@H](c1ccccc1)[C@@H](C(=O)O)C2
Activity (Rattus norvegicus [44]): <20%
Activity (Rattus norvegicus [12]): <20%
Activity (Rattus norvegicus [13]): <20%
Activity (Mus musculus [45]): 7%
